Results from ChEMBL document CHEMBL1201862, “PubChem BioAssay data set” (2004).
One block for each molecule: values may come before it. Active and inactive are the calls of the source.

How the values were obtained:
[1] = growth suppression of PTEN-null colon cells, dose response, cell-based, HCT116 PTEN knockout (AID 1047); format: functional;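 also: HCT116 colon tumor cells with PTEN knocked out; cells exposed to compound for 60 hours before readout; potency for loss of cell viability measured by luminescence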
[2] = cytotoxicity in HMLE control line with eGFP shRNA, dose response, counter-screen for HMLE_sh_ECad selective toxicity project, cell-based, HMLE_sh_eGFP, luminescence (AID 463074); format: functional, Homo sapiens;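 also: HMLE human mammary epithelial cells expressing control shRNA against eGFP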
[3] = growth suppression of beta-catenin-knockout colon cells, dose response, cell-based, HCT116, human colon tumor (AID 1045); format: functional;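 also: HCT116 colon tumor cells with beta catenin knocked out; cells exposed to compound for 60 hours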
[4] = Luminescence Cell-Based Dose Retest to Confirm Inhibitors of Cancer Stem Cells. [Related pubchem assays (depositor defined):AID2717, AID2721]; format: functional; conditions: Homo sapiens
[5] = biological target: T1, Kappa-type opioid receptor (Homo sapiens, UniProt P41145); assay: SAR analysis of small molecule agonists of the kappa opioid receptor via a luminescent beta-arrestin assay - Set 3. [Related pubchem assays (depositor defined):AID1777, AID1785, AID1786, AID1966, AID2133, AID2136, AID2284, AID2500]; format: functional
T1 sequence (P41145 whole entry): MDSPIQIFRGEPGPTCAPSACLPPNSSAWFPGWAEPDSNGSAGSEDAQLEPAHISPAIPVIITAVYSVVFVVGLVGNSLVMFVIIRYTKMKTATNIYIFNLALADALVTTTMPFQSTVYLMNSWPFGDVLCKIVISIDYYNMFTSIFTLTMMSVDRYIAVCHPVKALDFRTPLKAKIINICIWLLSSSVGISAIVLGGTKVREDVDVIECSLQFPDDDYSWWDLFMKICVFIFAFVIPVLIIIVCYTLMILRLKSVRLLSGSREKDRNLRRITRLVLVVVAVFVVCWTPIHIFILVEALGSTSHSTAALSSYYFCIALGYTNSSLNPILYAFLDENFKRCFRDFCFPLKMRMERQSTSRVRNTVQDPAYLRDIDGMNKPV

[6] = biological target: T1, Kappa-type opioid receptor; format: functional
Mu-type opioid receptor [7] = biological target: T2, Mu-type opioid receptor (Homo sapiens, UniProt P35372); assay: MOR agonists by imaging, SAR follow-up, image-based (AID 2352); format: functional
T2 sequence (P35372 whole entry): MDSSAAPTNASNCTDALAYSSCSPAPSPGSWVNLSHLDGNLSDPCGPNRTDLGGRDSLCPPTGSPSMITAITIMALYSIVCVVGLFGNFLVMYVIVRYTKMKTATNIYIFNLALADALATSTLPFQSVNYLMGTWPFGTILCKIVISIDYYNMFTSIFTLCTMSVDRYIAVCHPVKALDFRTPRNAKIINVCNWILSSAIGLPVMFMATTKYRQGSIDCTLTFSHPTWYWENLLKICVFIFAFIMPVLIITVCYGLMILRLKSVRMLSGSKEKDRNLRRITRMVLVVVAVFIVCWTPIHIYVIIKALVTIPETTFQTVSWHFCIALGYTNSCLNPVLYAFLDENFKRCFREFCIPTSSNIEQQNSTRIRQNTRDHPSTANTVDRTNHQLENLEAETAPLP

[8] = biological target: T1, Kappa-type opioid receptor; format: functional; remark: listed apart in the source
[9] = biological target: T1, Kappa-type opioid receptor; assay: KOR antagonists by imaging, SAR follow-up, image-based (AID 2348); format: functional
[10] = biological target: T3, Delta-type opioid receptor (Homo sapiens, UniProt P41143); assay: HTS Image-Based Screen for Agonists of the DOR Receptor. [Related pubchem assays (depositor defined):AID1777, AID1786, AID2133]; format: functional
T3 sequence (P41143 whole entry): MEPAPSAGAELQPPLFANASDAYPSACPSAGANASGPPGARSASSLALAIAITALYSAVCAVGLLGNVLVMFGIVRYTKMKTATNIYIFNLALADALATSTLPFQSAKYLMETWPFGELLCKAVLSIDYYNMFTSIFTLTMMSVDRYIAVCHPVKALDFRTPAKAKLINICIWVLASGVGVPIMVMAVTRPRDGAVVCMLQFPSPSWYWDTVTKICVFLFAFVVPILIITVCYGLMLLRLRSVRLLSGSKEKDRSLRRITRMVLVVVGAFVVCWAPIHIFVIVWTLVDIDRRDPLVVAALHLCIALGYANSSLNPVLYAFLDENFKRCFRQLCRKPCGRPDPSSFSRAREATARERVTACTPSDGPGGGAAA

[11] = biological target: T1, Kappa-type opioid receptor; assay: SAR analysis of small molecule agonists of the kappa opioid receptor via a luminescent beta-arrestin assay. [Related pubchem assays (depositor defined):AID1777, AID1786, AID1966, AID2133, AID2136, AID2348, AID2352, AID2357, AID2359, AID2370, AID2420, AID2478, AID2491, AID2492, AID2493, AID2497, AID2498, AID2500, AID449737, AID488822, AID488842]; format: functional
Mu-type opioid receptor [12] = biological target: T2, Mu-type opioid receptor; assay: MOR antagonists, SAR follow-up, image-based (AID 2420); format: functional;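 also: compounds added before stimulation of receptor with agonist DAMGO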
[13] = biological target: T3, Delta-type opioid receptor; assay: DOR agonists, SAR follow-up, image-based (AID 2370); format: functional
[14] = biological target: T3, Delta-type opioid receptor; assay: DOR antagonists, SAR follow-up, image-based (AID 2357); format: functional
[15] = biological target: T3, Delta-type opioid receptor; assay: HTS Image-Based Screen for Antagonists of the DOR Receptor. [Related pubchem assays (depositor defined):AID1777, AID1785, AID1786, AID2133]; format: functional
Mu-type opioid receptor [16] = biological target: T2, Mu-type opioid receptor; assay: HTS Image-Based Screen for Agonists of the MOR Receptor. [Related pubchem assays (depositor defined):AID1777, AID1785, AID1786, AID2133]; format: functional
Cytochrome P450 2D6 = Cytochrome P450 2D6 (Homo sapiens, UniProt P10635);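 also: CYP2D6 member of a cytochrome P450 panel assay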
Sequence of Cytochrome P450 2D6 (P10635 whole entry): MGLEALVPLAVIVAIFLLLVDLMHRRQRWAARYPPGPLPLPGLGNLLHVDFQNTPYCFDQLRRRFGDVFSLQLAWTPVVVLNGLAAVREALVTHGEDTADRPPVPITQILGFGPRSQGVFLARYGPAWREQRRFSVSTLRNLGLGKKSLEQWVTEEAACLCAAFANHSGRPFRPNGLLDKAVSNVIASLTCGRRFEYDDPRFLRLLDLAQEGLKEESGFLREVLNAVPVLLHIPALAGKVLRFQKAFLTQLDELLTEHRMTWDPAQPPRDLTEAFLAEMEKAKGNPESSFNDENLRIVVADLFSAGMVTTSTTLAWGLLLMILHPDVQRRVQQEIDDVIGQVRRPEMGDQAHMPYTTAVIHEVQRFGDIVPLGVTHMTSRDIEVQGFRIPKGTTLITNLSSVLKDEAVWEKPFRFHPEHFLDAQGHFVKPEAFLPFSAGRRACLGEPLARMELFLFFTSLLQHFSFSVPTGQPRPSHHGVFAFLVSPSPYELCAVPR

[17] = biological target: Peroxisome proliferator-activated receptor gamma/Nuclear receptor coactivator 3 (Homo sapiens, UniProt P37231); format: functional;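 also: agonist potency for raising coactivator recruitment to the receptor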
Sequence of Peroxisome proliferator-activated receptor gamma/Nuclear receptor coactivator 3 (P37231 whole entry): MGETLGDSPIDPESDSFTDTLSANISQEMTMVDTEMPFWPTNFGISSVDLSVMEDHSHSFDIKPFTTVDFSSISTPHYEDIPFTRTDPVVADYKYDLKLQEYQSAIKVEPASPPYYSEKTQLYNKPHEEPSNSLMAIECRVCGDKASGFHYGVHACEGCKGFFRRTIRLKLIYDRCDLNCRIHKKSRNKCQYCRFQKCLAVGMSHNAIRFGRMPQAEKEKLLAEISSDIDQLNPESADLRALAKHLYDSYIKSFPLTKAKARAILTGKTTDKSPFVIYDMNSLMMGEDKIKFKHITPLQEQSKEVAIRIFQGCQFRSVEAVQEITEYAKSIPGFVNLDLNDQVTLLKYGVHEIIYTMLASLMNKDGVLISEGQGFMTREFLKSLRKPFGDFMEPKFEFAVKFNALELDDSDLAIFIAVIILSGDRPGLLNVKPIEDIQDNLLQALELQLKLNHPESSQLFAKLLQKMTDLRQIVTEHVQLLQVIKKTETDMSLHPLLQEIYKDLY
Sequence of Peroxisome proliferator-activated receptor gamma/Nuclear receptor coactivator 3 (Q9Y6Q9 whole entry, further chain): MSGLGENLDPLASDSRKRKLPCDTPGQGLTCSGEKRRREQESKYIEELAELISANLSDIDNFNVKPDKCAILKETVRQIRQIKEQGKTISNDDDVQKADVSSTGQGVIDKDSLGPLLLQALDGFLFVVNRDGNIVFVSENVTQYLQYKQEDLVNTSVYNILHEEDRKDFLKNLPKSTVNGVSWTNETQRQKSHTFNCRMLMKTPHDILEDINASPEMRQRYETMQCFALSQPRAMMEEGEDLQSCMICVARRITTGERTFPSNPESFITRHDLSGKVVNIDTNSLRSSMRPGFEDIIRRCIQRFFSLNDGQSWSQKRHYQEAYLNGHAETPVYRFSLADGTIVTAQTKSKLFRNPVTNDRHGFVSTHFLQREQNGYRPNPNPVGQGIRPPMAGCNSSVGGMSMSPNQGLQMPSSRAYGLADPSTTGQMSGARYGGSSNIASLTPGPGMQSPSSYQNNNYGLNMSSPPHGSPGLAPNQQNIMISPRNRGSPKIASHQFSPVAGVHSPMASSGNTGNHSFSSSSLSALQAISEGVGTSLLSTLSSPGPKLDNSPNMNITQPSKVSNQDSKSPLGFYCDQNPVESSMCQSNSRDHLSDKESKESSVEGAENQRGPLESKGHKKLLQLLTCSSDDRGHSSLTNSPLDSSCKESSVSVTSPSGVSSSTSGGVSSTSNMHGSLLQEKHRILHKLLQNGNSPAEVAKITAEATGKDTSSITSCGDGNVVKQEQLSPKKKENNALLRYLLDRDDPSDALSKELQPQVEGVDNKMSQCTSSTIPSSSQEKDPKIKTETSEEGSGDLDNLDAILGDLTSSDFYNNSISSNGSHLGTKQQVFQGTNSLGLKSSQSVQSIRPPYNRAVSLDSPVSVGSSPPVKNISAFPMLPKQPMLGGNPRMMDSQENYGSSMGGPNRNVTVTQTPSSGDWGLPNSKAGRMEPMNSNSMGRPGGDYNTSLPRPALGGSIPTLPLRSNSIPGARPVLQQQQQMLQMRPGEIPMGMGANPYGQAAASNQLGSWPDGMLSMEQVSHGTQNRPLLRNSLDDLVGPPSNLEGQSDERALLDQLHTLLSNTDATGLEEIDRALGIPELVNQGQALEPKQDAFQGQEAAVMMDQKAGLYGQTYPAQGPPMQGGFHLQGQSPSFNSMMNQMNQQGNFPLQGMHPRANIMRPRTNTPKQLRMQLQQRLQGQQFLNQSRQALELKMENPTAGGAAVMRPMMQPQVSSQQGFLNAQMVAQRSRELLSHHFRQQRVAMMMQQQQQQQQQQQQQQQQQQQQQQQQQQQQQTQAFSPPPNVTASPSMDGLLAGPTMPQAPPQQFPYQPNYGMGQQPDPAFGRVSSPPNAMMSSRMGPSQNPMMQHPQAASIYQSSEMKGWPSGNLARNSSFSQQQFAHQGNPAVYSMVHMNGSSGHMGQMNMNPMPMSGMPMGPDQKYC

[18] = biological target: Peroxisome proliferator-activated receptor gamma/Nuclear receptor coactivator 2 (Homo sapiens, UniProt P37231); format: functional;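 also: agonist potency for raising coactivator recruitment to the receptor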
Cytochrome P450 3A4 = Cytochrome P450 3A4 (Homo sapiens, UniProt P08684);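 also: CYP3A4 tested as one member of a cytochrome P450 panel screen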
Sequence of Cytochrome P450 3A4 (P08684 whole entry): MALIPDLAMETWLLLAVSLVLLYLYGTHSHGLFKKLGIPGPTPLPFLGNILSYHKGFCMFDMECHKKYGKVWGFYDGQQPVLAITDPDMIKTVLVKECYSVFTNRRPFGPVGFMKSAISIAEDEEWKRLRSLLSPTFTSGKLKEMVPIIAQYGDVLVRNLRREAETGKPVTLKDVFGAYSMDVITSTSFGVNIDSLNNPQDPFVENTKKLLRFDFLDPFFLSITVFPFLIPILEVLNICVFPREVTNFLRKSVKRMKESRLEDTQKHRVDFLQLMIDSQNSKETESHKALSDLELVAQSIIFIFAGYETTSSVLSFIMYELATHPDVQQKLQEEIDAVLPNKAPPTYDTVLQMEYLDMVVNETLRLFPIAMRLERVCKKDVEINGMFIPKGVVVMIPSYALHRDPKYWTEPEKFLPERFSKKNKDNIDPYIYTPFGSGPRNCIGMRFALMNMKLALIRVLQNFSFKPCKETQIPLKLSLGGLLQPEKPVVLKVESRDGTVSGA

[19] = biological target: Peroxisome proliferator-activated receptor gamma/Nuclear receptor coactivator 1 (Homo sapiens, UniProt P37231); format: functional;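 also: agonist potency as compounds enhance coactivator SRC-1 recruitment to PPARgamma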
Cytochrome P450 2C9 = Cytochrome P450 2C9 (Homo sapiens, UniProt P11712)
Sequence of Cytochrome P450 2C9 (P11712 whole entry): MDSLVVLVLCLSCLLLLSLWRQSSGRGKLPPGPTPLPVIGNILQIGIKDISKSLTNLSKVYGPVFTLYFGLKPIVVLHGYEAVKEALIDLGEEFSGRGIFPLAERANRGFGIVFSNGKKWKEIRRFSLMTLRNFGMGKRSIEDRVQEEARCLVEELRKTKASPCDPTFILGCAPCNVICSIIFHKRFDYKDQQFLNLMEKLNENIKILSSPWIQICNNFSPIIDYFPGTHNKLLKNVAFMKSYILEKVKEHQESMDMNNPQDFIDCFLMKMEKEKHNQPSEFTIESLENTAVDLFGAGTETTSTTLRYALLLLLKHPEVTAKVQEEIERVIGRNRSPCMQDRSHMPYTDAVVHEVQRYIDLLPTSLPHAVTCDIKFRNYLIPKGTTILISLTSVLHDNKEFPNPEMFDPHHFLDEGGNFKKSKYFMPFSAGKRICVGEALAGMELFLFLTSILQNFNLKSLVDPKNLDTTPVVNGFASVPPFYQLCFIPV

Hexokinase-1 = biological target: T4, Hexokinase-1 (Homo sapiens, UniProt P19367); assay: HK1 enzyme inhibition by HKDC1 hits, SAR follow-up, selectivity assay for HKDC1 inhibitor project, biochemical, set 2, resazurin fluorescence coupled readout (AID 588356); format: functional
T4 sequence (P19367 whole entry): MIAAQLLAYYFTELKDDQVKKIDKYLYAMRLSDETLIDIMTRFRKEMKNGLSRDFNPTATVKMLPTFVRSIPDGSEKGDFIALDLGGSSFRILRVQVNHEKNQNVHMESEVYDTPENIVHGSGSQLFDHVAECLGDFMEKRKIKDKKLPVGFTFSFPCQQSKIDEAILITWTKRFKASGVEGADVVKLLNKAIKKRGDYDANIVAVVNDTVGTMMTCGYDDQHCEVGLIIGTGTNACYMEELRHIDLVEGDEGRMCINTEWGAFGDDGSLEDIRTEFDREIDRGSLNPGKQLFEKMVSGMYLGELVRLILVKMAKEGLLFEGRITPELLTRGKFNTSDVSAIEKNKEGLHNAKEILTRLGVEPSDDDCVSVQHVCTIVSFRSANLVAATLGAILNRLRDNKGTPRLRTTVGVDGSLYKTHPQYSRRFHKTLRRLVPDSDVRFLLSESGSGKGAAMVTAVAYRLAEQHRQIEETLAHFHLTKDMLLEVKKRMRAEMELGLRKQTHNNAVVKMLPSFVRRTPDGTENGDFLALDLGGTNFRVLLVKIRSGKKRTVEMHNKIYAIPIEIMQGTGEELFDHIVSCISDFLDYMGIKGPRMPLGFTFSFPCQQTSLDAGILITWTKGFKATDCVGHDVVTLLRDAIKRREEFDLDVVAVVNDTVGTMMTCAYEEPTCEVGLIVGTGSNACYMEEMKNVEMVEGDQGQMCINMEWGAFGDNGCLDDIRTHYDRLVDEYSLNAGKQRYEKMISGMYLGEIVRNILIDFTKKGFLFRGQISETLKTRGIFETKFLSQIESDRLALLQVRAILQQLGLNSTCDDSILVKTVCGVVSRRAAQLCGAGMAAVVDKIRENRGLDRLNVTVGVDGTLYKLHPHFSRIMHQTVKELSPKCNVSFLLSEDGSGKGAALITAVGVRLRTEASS

Hexokinase HKDC1 = biological target: T5, Hexokinase HKDC1 (Homo sapiens, UniProt Q2TB90); assay: HKDC1 hexokinase inhibitors, SAR follow-up, biochemical, set 2 (AID 588355); format: functional
T5 sequence (Q2TB90 whole entry): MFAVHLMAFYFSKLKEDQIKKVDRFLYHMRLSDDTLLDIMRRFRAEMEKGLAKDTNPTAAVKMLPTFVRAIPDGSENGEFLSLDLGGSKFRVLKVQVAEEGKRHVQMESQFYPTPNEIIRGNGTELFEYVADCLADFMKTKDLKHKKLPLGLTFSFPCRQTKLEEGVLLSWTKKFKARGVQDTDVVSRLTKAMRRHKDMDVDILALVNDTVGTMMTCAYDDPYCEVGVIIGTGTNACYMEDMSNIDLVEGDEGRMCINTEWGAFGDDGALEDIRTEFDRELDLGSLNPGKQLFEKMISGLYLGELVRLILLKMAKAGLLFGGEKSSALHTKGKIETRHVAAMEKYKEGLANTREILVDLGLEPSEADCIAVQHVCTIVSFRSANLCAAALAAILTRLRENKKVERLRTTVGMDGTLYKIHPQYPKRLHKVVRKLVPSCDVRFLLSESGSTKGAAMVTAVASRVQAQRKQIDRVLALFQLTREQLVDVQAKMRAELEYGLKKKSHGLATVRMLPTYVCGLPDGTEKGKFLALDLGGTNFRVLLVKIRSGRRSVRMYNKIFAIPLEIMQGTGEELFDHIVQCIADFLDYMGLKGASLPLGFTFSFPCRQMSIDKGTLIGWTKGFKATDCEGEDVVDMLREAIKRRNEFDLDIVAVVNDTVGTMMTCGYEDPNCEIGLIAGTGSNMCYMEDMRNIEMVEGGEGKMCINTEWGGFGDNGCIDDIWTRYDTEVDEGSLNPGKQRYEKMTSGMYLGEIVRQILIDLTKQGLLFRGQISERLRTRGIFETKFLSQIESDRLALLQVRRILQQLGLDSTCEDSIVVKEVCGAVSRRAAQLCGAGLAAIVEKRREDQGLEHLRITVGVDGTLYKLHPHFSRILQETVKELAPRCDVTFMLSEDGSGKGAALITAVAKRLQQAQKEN

SMILES: Cc1nn(Cc2ccc(Cl)cc2)c(Cl)c1/C=N/NC(=O)CNc1ccccc1F
EC50 [1]: 15.8 µM (active)
AC50 [2]: 24.9 µM (active)
EC50 [3]: 18 µM (active)
AC50 [4]: 16.2 µM (active)

EC50 [5]: 8.38 µM (active)
EC50 [6]: 4.95 µM
EC50 (Mu-type opioid receptor [7]): > 32 µM (inactive)
EC50 [8]: 4.84 µM
IC50 [9]: > 32 µM (inactive)
EC50 [10]: > 32 µM (inactive)
EC50 [11]: 7.69 µM (active)
IC50 (Mu-type opioid receptor [12]): > 32 µM (inactive)
EC50 [13]: > 32 µM (inactive)
IC50 [14]: > 32 µM (inactive)
IC50 [15]: > 32 µM (inactive)
EC50 (Mu-type opioid receptor [16]): > 32 µM (inactive)
SMILES: CCCCN(Cc1cc2cc(C)ccc2[nH]c1=O)C(=O)c1ccccn1

AC50 (Cytochrome P450 2D6): inconclusive
EC50 [17]: > 79.4 µM (not active)
EC50 [18]: 18.6 µM (not active)
AC50 (Cytochrome P450 3A4): inconclusive
EC50 [19]: > 79.4 µM (not active)
AC50 (Cytochrome P450 2C9): 1.12 µM (inconclusive)
SMILES: c1ccc(CSc2ncnc3c2sc2nc(N4CCOCC4)c4c(c23)CCCC4)cc1

IC50 (Hexokinase-1): > 80 µM (inactive)
IC50 (Hexokinase HKDC1): > 80 µM (inactive)
SMILES: CCc1ccc(NC2c3ccccc3C(=O)N2c2ccccc2C)cc1 (centres undefined)
